Data reported in ChEMBL document CHEMBL1129885, “Rational design of selective thrombin inhibitors” (Bioorg Med Chem Lett, 1997).

Tests used:
Prothrombin = Prothrombin (Bos taurus, UniProt P00735); assay: Inhibitory effect against bovine thrombin
Serine protease 1 = molecular target: T1, Serine protease 1 (Bos taurus, UniProt P00760); assay: Inhibitory effect of compound was measured in bovine trypsin
T1 sequence (P00760 whole entry): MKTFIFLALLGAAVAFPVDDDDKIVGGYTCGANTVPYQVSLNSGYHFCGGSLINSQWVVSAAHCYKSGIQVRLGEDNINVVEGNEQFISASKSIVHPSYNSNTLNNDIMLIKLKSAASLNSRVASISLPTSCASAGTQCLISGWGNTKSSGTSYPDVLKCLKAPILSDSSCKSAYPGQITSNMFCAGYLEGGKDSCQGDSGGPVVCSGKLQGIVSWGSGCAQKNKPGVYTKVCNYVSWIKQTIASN

[1] = Ratio of inhibitory effect of bovine trypsin to that of bovine thrombin

Compound `N=C(N)c1ccc(C[C@@H](NC(=O)CNS(=O)(=O)c2ccc3ccccc3c2)C(=O)N2CCCCCC2)cc1` has a Ki (Prothrombin) of 0.02 µM.

`NN=C(N)c1ccc(C[C@@H](NC(=O)CNS(=O)(=O)c2ccc3ccccc3c2)C(=O)N2CCCCC2)cc1` gave a Ki (Prothrombin) of 5.37 µM and a Ki (Serine protease 1) of 192 µM.

`NN=C(N)c1ccc(C[C@@H](NC(=O)CNS(=O)(=O)c2ccc3ccccc3c2)C(=O)N2CCCCCC2)cc1` gave a Ki (Prothrombin) of 2.7 µM.

With `CN=C(N)c1ccc(C[C@@H](NC(=O)CNS(=O)(=O)c2ccc3ccccc3c2)C(=O)N2CCCCC2)cc1` the Ki (Prothrombin) was 4.32 µM and the Ki (Serine protease 1) was 81.5 µM.

Compound `CNC(=N)c1ccc(C[C@@H](NC(=O)CNS(=O)(=O)c2ccc3ccccc3c2)C(=O)N2CCCCC2)cc1` has a Ratio [1] of 19.

Compound `N=C(N)c1ccc(C[C@@H](NC(=O)CNS(=O)(=O)c2ccc3ccccc3c2)C(=O)N2CCCCC2)cc1` has a Ki (Prothrombin) of 0.0065 µM.

With `N=C(NN)c1ccc(C[C@H](NS(=O)(=O)c2ccc3ccccc3c2)C(=O)N2CCCCCC2)cc1` the Ki (Prothrombin) was 0.00147 µM, the Ratio [1] was 2540 and the Ki (Serine protease 1) was 3.73 µM.

`N=C(NO)c1ccc(C[C@H](NS(=O)(=O)c2ccc3ccccc3c2)C(=O)N2CCCCCC2)cc1` gave a Ki (Prothrombin) of 1.14 µM and a Ki (Serine protease 1) of 316 µM.

With `N=C(NN)c1ccc(C[C@H](NS(=O)(=O)c2ccc3cc4ccccc4cc3c2)C(=O)N2CCCCCC2)cc1` the Ki (Prothrombin) was 0.001 µM.

In the case of `N=C(N)c1ccc(C[C@H](NS(=O)(=O)c2ccc3cc4ccccc4cc3c2)C(=O)N2CCCCCC2)cc1`, the Ki (Prothrombin) is reported as 0.05 µM.

`N/C(=N\O)c1ccc(C[C@H](NS(=O)(=O)c2ccc3ccccc3c2)C(=O)N2CCCCCC2)cc1` showed a Ratio [1] of 277.

For `CNC(=N)c1ccc(C[C@H](NS(=O)(=O)c2ccc3ccccc3c2)C(=O)N2CCCCCC2)cc1`, the Ratio [1] was 12000.

`N=C(N)c1ccc(C[C@H](NS(=O)(=O)c2ccc3ccccc3c2)C(=O)N2CCCCCC2)cc1` gave a Ki (Prothrombin) of 0.0524 µM, a Ratio [1] of 166 and a Ki (Serine protease 1) of 8.65 µM.

Compound `CN=C(N)c1ccc(C[C@H](NS(=O)(=O)c2ccc3ccccc3c2)C(=O)N2CCCCCC2)cc1` has a Ki (Prothrombin) of 0.0455 µM and a Ki (Serine protease 1) of 545 µM.

For `N=C(NN)c1ccc(C[C@@H](NC(=O)CNS(=O)(=O)c2ccc3ccccc3c2)C(=O)N2CCCCC2)cc1`, the Ratio [1] was 36.

Work on `CCNC(=N)c1ccc(C[C@H](NS(=O)(=O)c2ccc3ccccc3c2)C(=O)N2CCCCCC2)cc1` yielded a Ki (Prothrombin) of 13.6 µM.
